Experimental findings from US11773071B2, “Benzothiazepine compounds and their use as bile acid modulators” (Albireo AB, priority 2019, dated 2023) are described below.

One experiment has as its target T1, Human IBAT (Homo sapiens, UniProt Q12908).
T1 construct: expressed in transfected cells; Puromycin-selected
T1 sequence (Q12908 1-348): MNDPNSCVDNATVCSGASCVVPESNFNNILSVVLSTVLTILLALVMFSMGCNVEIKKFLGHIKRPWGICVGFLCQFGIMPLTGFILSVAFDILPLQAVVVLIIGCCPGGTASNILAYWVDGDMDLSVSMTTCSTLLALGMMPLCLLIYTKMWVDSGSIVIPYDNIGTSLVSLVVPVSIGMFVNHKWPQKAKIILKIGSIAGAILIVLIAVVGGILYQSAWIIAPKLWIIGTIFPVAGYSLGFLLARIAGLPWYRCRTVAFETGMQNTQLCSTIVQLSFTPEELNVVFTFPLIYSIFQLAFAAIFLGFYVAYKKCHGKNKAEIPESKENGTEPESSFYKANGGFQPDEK
The experiment can be described thus: IBAT (h/m) assay, human IBAT-overexpressing cells, 3H-taurocholic acid uptake. The experiment is classed as cell-based. The note with it: 0.25 μM 3H-taurocholic acid and 5 μM cold taurocholic acid, 20 minutes, read-out: hIBAT IC50. The method in brief: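 Human or mouse IBAT-overexpressing cells, seeded 48 h before the assay, were incubated 20 min at 37 °C with 0.25 μM 3H-taurocholic acid plus 5 μM cold taurocholic acid and inhibitor (10-point 3-fold series from 10 μM top, 0.2% DMSO final), in duplicate. After ice stop and washes with 1 mM cold taurocholate, uptake was read by scintillation counting.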

In the next experiment the target is T2, Human LBAT (Homo sapiens, UniProt Q14973).
T2 construct: expressed in transfected cells; Geneticin-selected
T2 sequence (Q14973 1-349): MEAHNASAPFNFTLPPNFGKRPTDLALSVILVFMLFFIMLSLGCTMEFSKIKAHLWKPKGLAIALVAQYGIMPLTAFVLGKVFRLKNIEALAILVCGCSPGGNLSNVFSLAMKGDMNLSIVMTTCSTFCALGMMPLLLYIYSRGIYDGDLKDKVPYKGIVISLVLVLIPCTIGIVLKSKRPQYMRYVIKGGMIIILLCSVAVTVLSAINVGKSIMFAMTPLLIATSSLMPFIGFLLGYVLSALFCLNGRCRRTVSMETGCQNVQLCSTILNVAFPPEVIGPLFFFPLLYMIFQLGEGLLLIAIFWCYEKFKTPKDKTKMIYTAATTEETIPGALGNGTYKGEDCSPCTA
The experiment can be described thus: LBAT (h/m) assay, human LBAT-overexpressing cells, 3H-taurocholic acid uptake. The experiment is classed as cell-based. Particulars: 0.3 μM 3H-taurocholic acid and 7.5 μM cold taurocholic acid, 20 minutes, read-out: hLBAT IC50. In short, it runs like this: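 Human LBAT-overexpressing cells, washed in FBS-free MEM-alpha, incubated 20 min at 37 °C with 10-point 3-fold inhibitor dilutions (0.2% DMSO final), 0.3 μM 3H-taurocholic acid plus 7.5 μM cold taurocholic acid (mouse LBAT: 25 μM cold). Ice stop, chilled 1 mM taurocholate washes; uptake read by scintillation counting.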

A word on the IC50: it is the concentration that gives 50% inhibition. `CCCCC1(CC)CN(c2ccccc2)c2cc(Br)c(OCCC(=O)O)cc2S(=O)(=O)C1` (racemic) [Example 1, 3-((7-Bromo-3-butyl-3-ethyl-1,1-dioxido-5-phenyl-2,3,4,5-tetrahydro-1,5-benzothiazepin-8-yl)oxy)propanoic acid]: the IC50 on Human IBAT was found to be 18 nM; at Human LBAT, 2170 nM.
Turning to `CCCCC1(CCCC)CN(c2ccccc2)c2cc(SC)c(OCC(O)C(=O)O)cc2S(=O)(=O)C1` (racemic) [Example 9, 3-((3,3-Dibutyl-7-(methylthio)-1,1-dioxido-5-phenyl-2,3,4,5-tetrahydro-1,5-benzothiazepin-8-yl)oxy)-2-hydroxypropanoic acid], the IC50 is 3 nM on Human IBAT and 396 nM on Human LBAT.
Regarding `CCCCC1(C)CN(c2ccccc2)c2cc(N(C)C)c(OCCC(=O)O)cc2S(=O)(=O)C1` (single isomer, unassigned) [29, enantiomer 1], the IC50 stood at 5 nM on Human IBAT and 2590 nM at Human LBAT.
In the case of `CCCCC1(CC)CN(c2ccccc2)c2cc(Cl)c(OC(C)CC(=O)O)cc2S(=O)(=O)C1` (single isomer, unassigned) [30, diastereomer 1], the half-maximal inhibitory concentration (IC50) on Human IBAT was determined as 22 nM; on Human LBAT it was 283 nM.
The matching figures for `CCCCC1(C)CN(c2ccccc2)c2cc(SC)c(OCC(O)C(=O)O)cc2S(=O)(=O)C1` (single isomer, unassigned) [32, diastereomer 1]: 3 nM and 2950 nM.
With `CCCCC1(CC)CN(c2ccccc2)c2cc(SC)c(OCC(C)(F)C(=O)O)cc2S(=O)(=O)C1` (single isomer, unassigned) [35, diastereomer 1], the IC50 stood at 4 nM at Human IBAT and 48 nM on Human LBAT.
In the case of `CCCCC1(CC)CN(c2ccccc2)c2cc(SC)c(OCC(C)(O)C(=O)O)cc2S(=O)(=O)C1` (single isomer, unassigned) [48, diastereomer 2], the IC50 on Human IBAT amounted to 16 nM; at Human LBAT, 155 nM.
The matching figures for `CCCCC1(CC)CN(c2ccccc2)c2cc(Br)c(OCCC(=O)O)cc2S(=O)(=O)C1` (single isomer, unassigned) [Example 2, 3-((7-bromo-3-butyl-3-ethyl-1,1-dioxido-5-phenyl-2,3,4,5-tetrahydro-1,5-benzothiazepin-8-yl)oxy)propanoic acid]: 6 nM and 375 nM.
In the case of `CCCCC1(CC)CN(c2ccccc2)c2cc(Cl)c(OCCC(=O)O)cc2S(=O)(=O)C1` (single isomer, unassigned) [Example 6, 3-((3-butyl-7-chloro-3-ethyl-1,1-dioxido-5-phenyl-2,3,4,5-tetrahydro-1,5-benzothiazepin-8-yl)oxy)propanoic acid], the figures for the 50% inhibitory concentration (IC50) on Human IBAT and on Human LBAT were 17 nM and 410 nM, respectively.
For `CCCCC1(CCCC)CN(c2ccccc2)c2cc(SC)c(OCC(O)C(=O)O)cc2S(=O)(=O)C1` (single isomer, unassigned) [Example 10, 3-((3,3-dibutyl-7-(methylthio)-1,1-dioxido-5-phenyl-2,3,4,5-tetrahydro-1,5-benzothiazepin-8-yl)oxy)-2-hydroxypropanoic acid], the values for the IC50 on Human IBAT and on Human LBAT were 1 nM and 379 nM, respectively.
In the case of `CCCCC1(CCCC)CN(c2ccccc2)c2cc(SC)c(OCC(O)C(=O)O)cc2S(=O)(=O)C1` (single isomer, unassigned) [Example 11, 3-((3,3-dibutyl-7-(methylthio)-1,1-dioxido-5-phenyl-2,3,4,5-tetrahydro-1,5-benzothiazepin-8-yl)oxy)-2-hydroxypropanoic acid], the IC50 on Human IBAT amounted to 4 nM; on Human LBAT it was 613 nM.
In the case of `CCCCC1(CC)CN(c2ccccc2)c2cc(SC)c(OCCC(=O)O)cc2S(=O)(=O)C1` (single isomer, unassigned) [Example 13, 3-((3-butyl-3-ethyl-7-(methylthio)-1,1-dioxido-5-phenyl-2,3,4,5-tetrahydro-1,5-benzothiazepin-8-yl)oxy)propanoic acid], the half-inhibitory concentration (IC50) at Human IBAT was found to be 4 nM; on Human LBAT it was 489 nM.
In the same order, the values of `CCCCC1(C)CN(c2ccccc2)c2cc(SC)c(OCCC(=O)O)cc2S(=O)(=O)C1` (single isomer, unassigned) [Example 24, 3-((3-butyl-3-methyl-7-(methylthio)-1,1-dioxido-5-phenyl-2,3,4,5-tetrahydro-1,5-benzothiazepin-8-yl)oxy)propanoic acid] are 7 nM and 596 nM.
On to `CCCCC1(CCCC)CN(c2ccccc2)c2cc(Br)c(OCCC(=O)O)cc2S(=O)(=O)C1` [Example 4, 3-((7-Bromo-3,3-dibutyl-1,1-dioxido-5-phenyl-2,3,4,5-tetrahydro-1,5-benzothiazepin-8-yl)oxy)propanoic acid], for which the IC50 worked out at 26 nM on Human IBAT and 375 nM on Human LBAT.
For the compound `CCCCC1(CCCC)CN(c2ccccc2)c2cc(SC)c(OCCC(=O)O)cc2S(=O)(=O)C1` [Example 15, 3-((3,3-dibutyl-7-(methylthio)-1,1-dioxido-5-phenyl-2,3,4,5-tetrahydro-1,5-benzothiazepin-8-yl)oxy)propanoic acid], the half-maximal inhibitory concentration (IC50) on Human IBAT came to 32 nM; on Human LBAT, 1930 nM.
On to `CCCCC1(CC)CN(c2ccccc2)c2cc(SC)c(OCC(C)(F)C(=O)O)cc2S(=O)(=O)C1` (centres unmarked) [Example 34, 3-((3-butyl-3-ethyl-7-(methylthio)-1,1-dioxido-5-phenyl-2,3,4,5-tetrahydro-1,5-benzothiazepin-8-yl)oxy)-2-fluoro-2-methylpropanoic acid], for which the half-inhibitory concentration (IC50) on Human IBAT amounted to 12 nM; at Human LBAT it was 28 nM.
